EP1038880B1, “Androstanes and pregnanes for allosteric modulation of GABA receptor” (priority 1994, dated 1995)

Legend:
[1] = system: N.I.H. Swiss-Webster mice; assay: Light/dark transition test; type: in vivo; conditions: IP, 10 min test, vs control, Dunnett's t-test (Fig. 8)
Description: Male N.I.H. Swiss-Webster mice (Harlan, Harlan, Indianapolis, IN) weighing 15-20 g were housed four per cage in polyethylene cages with sawdust bedding. The colony room was environmentally controlled (22°C) with a hr light/dark cycle (0600-1800hr). Food and water were available ad libitum, except during testing. The experiments were run from 0700-1500 hr and groups were counterbalanced for time of day effects. Mice were only administered drug or vehicle once.
The apparatus included two 2-compartment automated test chambers (Model RXYZCM16, Omnitech Electronics, Columbus, OH). The open compartment was connected to the enclosed compartment via a 7.5 × 7.5 cm passageway. The open compartment was brightly lit using a 200 W incandescent light bulb. The experimental room was kept dark. Interruptions of the infrared beams in either chamber were automatically recorded by being linked to a computer through a Digiscan Analyzer (Omnitech and the data was analyzed using the Integrated Lab Animal Monitoring System (Omnitech Electronics). N.IH. Swiss-Webster mice were administered vehicle or test drug intraperiotoneally (IP),10 min later they were placed in the center of the lit compartment. The number of transitions between the lit and dark chambers, total activity in the lit chamber and the time spent in the lit chamber were measured during a 10 min test period.

[2] = target: T1, Hippocampal Mineralocorticoid Receptors (Rattus norvegicus, UniProt P22199); assay: Inhibition of 3H-aldosterone binding, brain cytosol; set-up: species or system rats; conditions: competitor 10^-6M; 3 nM 3H-aldosterone, RU28362 0.5 µM
T1 construct: To isolate the mineralocorticoid receptor, brain cytosol fractions were prepared; from tissue; host or cells: rat brain (hippocampal) cytosol
T1 sequence (P22199 1-981): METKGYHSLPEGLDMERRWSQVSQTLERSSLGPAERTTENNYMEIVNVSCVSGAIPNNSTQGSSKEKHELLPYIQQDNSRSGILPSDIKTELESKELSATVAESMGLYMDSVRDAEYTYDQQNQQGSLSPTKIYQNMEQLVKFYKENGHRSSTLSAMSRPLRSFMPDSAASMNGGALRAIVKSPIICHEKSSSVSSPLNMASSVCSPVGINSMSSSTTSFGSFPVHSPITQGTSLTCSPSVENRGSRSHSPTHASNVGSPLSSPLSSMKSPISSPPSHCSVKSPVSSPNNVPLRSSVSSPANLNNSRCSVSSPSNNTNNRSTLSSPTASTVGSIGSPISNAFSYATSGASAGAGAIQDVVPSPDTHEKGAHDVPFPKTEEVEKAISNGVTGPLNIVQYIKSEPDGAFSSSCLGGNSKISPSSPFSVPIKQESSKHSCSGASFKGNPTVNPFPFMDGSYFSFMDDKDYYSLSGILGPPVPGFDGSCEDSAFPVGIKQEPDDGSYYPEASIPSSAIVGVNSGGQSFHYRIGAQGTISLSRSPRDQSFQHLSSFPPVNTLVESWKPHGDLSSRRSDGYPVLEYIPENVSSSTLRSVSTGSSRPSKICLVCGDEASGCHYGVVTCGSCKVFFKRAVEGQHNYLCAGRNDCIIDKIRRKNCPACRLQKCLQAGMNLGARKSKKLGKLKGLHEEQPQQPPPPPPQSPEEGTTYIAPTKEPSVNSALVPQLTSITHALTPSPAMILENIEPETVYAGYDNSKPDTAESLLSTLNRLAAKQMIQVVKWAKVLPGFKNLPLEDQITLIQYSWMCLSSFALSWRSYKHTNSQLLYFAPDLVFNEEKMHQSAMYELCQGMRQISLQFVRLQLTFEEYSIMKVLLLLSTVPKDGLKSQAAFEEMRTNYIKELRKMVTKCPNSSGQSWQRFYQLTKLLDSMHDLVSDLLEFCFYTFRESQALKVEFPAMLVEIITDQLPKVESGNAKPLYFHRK

Structure (SMILES)	number of transitions between the dark box and the light box, in words [1]	inhibition at 1 µM [2] [%]
CC(=O)[C@H]1CC[C@H]2[C@@H]3CC[C@H]4C[C@H](O)CC[C@]4(C)[C@H]3CC[C@]12C [3α-Hydroxy-5α-pregnan-20-one, 3α-hydroxy-5α-pregnan-20-one]	significantly increased	–
C[C@]12CC[C@@H](O)C[C@@H]1CC[C@@H]1[C@@H]2CC[C@]2(C)[C@@H](C(=O)CO)CC[C@@H]12 [3α,21-dihydroxy-5α-pregnan-20-one]	–	76.7
